Test results taken from patent publication US7199131B2, “Sulfonamide and sulfamide substituted imidazoquinolines” (3M Innovative Properties Company, priority 2001, dated 2007).

What was measured:
[1] = system: tumor necrosis factor (α); assay: Cytokine Induction in Human Cells: tumor necrosis factor (α) secreted by PBMCs, ELISA; type: cell-based; details: PBMC, incubated 18 to 24 hours, lowest concentration found to induce tumor necrosis factor
Text: (§1) An in vitro human blood cell system was used to assess cytokine induction by compounds of the invention. Activity is based on the measurement of interferon and tumor necrosis factor (α) (IFN and TNF, respectively) secreted into culture media as described by Testerman et. al. In “Cytokine Induction by the Immunomodulators Imiquimod and S-27609”, Journal of Leukocyte Biology, 58, 365–372 (September, 1995).
(§2) Whole blood is collected by venipuncture into EDTA vacutainer tubes from healthy human donors. Peripheral blood mononuclear cells (PBMCs) are separated from whole blood by density gradient centrifugation using Histopaque®-1077 (Sigma Chemicals, St. Louis, Mo.). The PBMCs are suspended at 3–4×10^6 cells/mL in RPMI 1640 medium containing 10% fetal bovine serum, 2 mM L-glutamine and 1% penicillin/streptomycin solution (RPMI complete). The PBMC suspension is added to 48 well flat bottom sterile tissue culture plates (Costar, Cambridge, Mass. or Becton Dickinson Labware, Lincoln Park, N.J.) containing an equal volume of RPMI complete media containing test compound.
(§3) The compounds are solubilized in dimethyl sulfoxide (DMSO). The DMSO concentration should not exceed a final concentration of 1% for addition to the culture wells.
(§4) The solution of test compound is added at 60 μM to the first well containing RPMI complete and serial (three fold or ten fold) dilutions are made. The PBMC suspension is then added to the wells in an equal volume, bringing the test compound concentrations to the desired range. The final concentration of PBMC suspension is 1.5–2×10^6 cells/mL. The plates are covered with sterile plastic lids, mixed gently and then incubated for 18 to 24 hours at 37° C. in a 5% carbon dioxide atmosphere.
(§5) Following incubation the plates are centrifuged for 5–10 minutes at 1000 rpm (˜200×g) at 4° C. The cell culture supernatant is removed with a sterile polypropylene pipette and transferred to sterile polypropylene tubes. Samples are maintained at −30 to −70° C. until analysis. The samples are analyzed for interferon (α) and tumor necrosis factor (α) by ELISA
Tumor necrosis factor (α) (TNF) concentration is determined using ELISA kits available from Genzyme, Cambridge, Mass.; R&D Systems, Minneapolis, Minn.; or Pharmingen, San Diego, Calif.
(§6) The table below lists the lowest concentration found to induce interferon and the lowest concentration found to induce tumor necrosis factor for each compound.

[2] = system: interferon (α); assay: Cytokine Induction in Human Cells: interferon (α) secreted by PBMCs, ELISA; type: cell-based; details: PBMC, incubated 18 to 24 hours, lowest concentration found to induce interferon
Text: as §1, §2, §3, §4, §5
Interferon (α) concentration is determined by ELISA using a Human Multi-Species kit from PBL Biomedical Laboratories, New Brunswick, N.J.
as §6

SMILES | minimal effective concentration [1] | minimal effective concentration [2] | melting point
COCCc1nc2c(N)nc3c(c2n1CCCNS(C)(=O)=O)CCCC3 [Example 259, N-{3-[4-amino-2-(2-methoxyethyl)-6,7,8,9-tetrahydro-1H-imidazo[4,5-c]quinolin-1-yl]propyl}methanesulfonamide] | 10 µM | 0.01 µM | 150 to 152 °C
COCCc1nc2c(N)nc3ccccc3c2n1CCCNS(=O)(=O)c1ccc(C)cc1 [Example 253, N-{3-[4-amino-2-(2-methoxyethyl)-1H-imidazo[4,5-c]quinolin-1-yl]propyl}-4-methylbenzenesulfonamide] | 0.12 µM | 0.04 µM | 189 to 191 °C
CCCCCc1nc2c(N)nc3c(c2n1CCCCNS(C)(=O)=O)CCCC3 [Example 254, N-[4-(4-amino-2-pentyl-6,7,8,9-tetrahydro-1H-imidazo[4,5-c]quinolin-1-yl)butyl]methanesulfonamide] | 1.11 µM | 0.01 µM | 167 to 167.8 °C
COCCc1nc2c(N)nc3ccccc3c2n1CCCNS(=O)(=O)c1cccc2c(N(C)C)cccc12 [Example 257, N-{3-[4-amino-2-(2-methoxyethyl)-1H-imidazo[4,5-c]quinolin-1-yl]propyl}-5-(dimethylamino)naphthalene-1-sulfonamide] | 3.33 µM | 1.11 µM | 210 to 215 °C
CCCc1nc2c(N)nc3ccccc3c2n1CCCCNS(C)(=O)=O [Example 235, N-[4-(4-amino-2-propyl-1H-imidazo[4,5-c]quinolin-1-yl)butyl]methanesulfonamide] | 1.11 µM | 0.04 µM | 186.5 to 187.9 °C
CCOCc1nc2c(N)nc3ccccc3c2n1CCCNS(C)(=O)=O [Example 255, N-{3-[4-amino-2-(ethoxymethyl)-1H-imidazo[4,5-c]quinolin-1-yl]propyl}methanesulfonamide] | 3.33 µM | 0.12 µM | 208.2 to 209.6 °C
CCCCc1nc2c(N)nc3ccccc3c2n1CCCNS(=O)(=O)c1cccc2c(N(C)C)cccc12 [Example 245, N-[3-(4-amino-2-butyl-1H-imidazo[4,5-c]quinolin-1-yl)propyl]-5-(dimethylamino)naphthalene-1-sulfonamide] | > 30 µM | 3.33 µM | 216.5 to 217.5 °C
CCc1nc2c(N)nc3ccccc3c2n1CCCCNS(=O)(=O)c1ccccc1 [Example 232, N-[4-(4-amino-2-ethyl-1H-imidazo[4,5-c]quinolin-1-yl)butyl]benzenesulfonamide] | 1.11 µM | 0.12 µM | 180.6 to 182 °C
CCCCc1nc2c(N)nc3ccccc3c2n1CCNS(=O)(=O)c1ccc(C)cc1 [Example 264, N-[2-(4-amino-2-butyl-1H-imidazo[4,5-c]quinolin-1-yl)ethyl]-4-methylbenzenesulfonamide] | 1.11 µM | 1.11 µM | 187 to 188 °C
CCCCc1nc2c(N)nc3ccccc3c2n1CCCNS(=O)(=O)c1ccccc1 [Example 240, N-[3-(4-amino-2-butyl-1H-imidazo[4,5-c]quinolin-1-yl)propyl]benzenesulfonamide] | 3.33 µM | 0.37 µM | 210.5 to 212 °C
